In brackets after ≈: the same amount, converted by molar mass. Several values for one entry are separate records, joined by “and”; a condition that tells them apart may be missing. Equal values may be shown once. One block for each molecule: values may come before it.
Legend:
Assay in all cases: ≥ marks a high value that may be exact or a test limit, other limits are often not marked, values filed in µg/mL are converted to µM
Streptococcus mutans = system: Streptococcus mutans
[1] = system: Lacticaseibacillus casei ATCC 4646
[2] = system: Streptococcus sanguinis NY101
[3] = system: Streptococcus mitis ATCC 903
[4] = system: Streptococcus gordonii Challis DL1
[5] = system: Veillonella atypica PK1910
[6] = system: Enterococcus faecium mic80
[7] = system: Klebsiella pneumoniae ESBL 63575
[8] = system: Stenotrophomonas maltophilia ATCC 13637
[9] = system: Enterobacter cloacae 218R
[10] = system: Enterococcus faecalis ATCC 29212
[11] = system: Pseudomonas aeruginosa H1030
[12] = system: Enterococcus faecalis f43559
Pseudomonas aeruginosa 9 = system: Pseudomonas aeruginosa 9
[13] = system: Enterococcus faecium t62764
[14] = system: Pseudomonas aeruginosa PAO1 H103
[15] = system: Pseudomonas aeruginosa 213
[16] = system: Pseudomonas aeruginosa 198
[17] = system: Escherichia coli ESBL 63103
[18] = system: Pseudomonas aeruginosa H1027
[19] = system: Enterococcus faecalis W61950
[20] = system: Klebsiella pneumoniae ESBL 61962
[21] = system: Pseudomonas aeruginosa LES400
[22] = system: Escherichia coli ESBL 64771
[23] = system: Staphylococcus aureus ATCC 25923
[24] = system: Staphylococcus aureus C623
[25] = system: Streptococcus mutans UA159
Staphylococcus aureus = system: Staphylococcus aureus
[26] = system: Pseudomonas aeruginosa PAK
[27] = system: Pseudomonas aeruginosa CUN 4158-02
Vibrio cholerae CUN 09 = system: Vibrio cholerae CUN 09
[28] = system: Escherichia coli ATCC 25922
[29] = system: Bordetella bronchiseptica CUN 11844-99
[30] = system: Staphylococcus aureus ATCC 43300
[31] = system: Batrachochytrium dendrobatidis JEL-197
[32] = system: Escherichia coli ATCC 25726
Pseudomonas aeruginosa = system: Pseudomonas aeruginosa
Bacillus subtilis = system: Bacillus subtilis
[33] = system: Micrococcus luteus AB93113
[34] = system: Bacillus subtilis AB91021
Escherichia coli = system: Escherichia coli
Micrococcus luteus = system: Micrococcus luteus

MIC [6]: 1.58 µM (≈ 2.2 µg/mL)
MIC [7]: 1.58 µM (≈ 2.2 µg/mL)
MIC [8]: 0.791 µM (≈ 1.1 µg/mL)
MIC [9]: 1.58 µM (≈ 2.2 µg/mL)
MIC [10]: 3.16 µM (≈ 4.4 µg/mL)
MIC [11]: 1.58 µM (≈ 2.2 µg/mL)
MIC [12]: 12.2 µM (≈ 17 µg/mL)
MIC (Pseudomonas aeruginosa 9): 6.18 µM (≈ 8.6 µg/mL)
MIC [13]: 1.58 µM (≈ 2.2 µg/mL)
MIC [14]: 3.16 µM (≈ 4.4 µg/mL)
MIC [15]: 3.16 µM (≈ 4.4 µg/mL)
MIC [16]: 1.58 µM (≈ 2.2 µg/mL)
MIC [17]: 0.791 µM (≈ 1.1 µg/mL)
MIC [18]: 0.791 µM (≈ 1.1 µg/mL)
MIC [19]: 12.2 µM (≈ 17 µg/mL)
MIC [20]: 1.58 µM (≈ 2.2 µg/mL)
MIC [21]: 3.16 µM (≈ 4.4 µg/mL)
MIC [22]: 0.791 µM (≈ 1.1 µg/mL)
MIC [23]: 1.58 µM (≈ 2.2 µg/mL)
MIC [24]: 1.58 µM (≈ 2.2 µg/mL)
SMILES: CC[C@H](C)[C@H](NC(=O)[C@H](Cc1c[nH]c2ccccc12)NC(=O)[C@H](CCCCN)NC(=O)[C@@H](N)CCCN=C(N)N)C(=O)N[C@@H](Cc1c[nH]c2ccccc12)C(=O)N[C@@H](CCCN=C(N)N)C(=O)N[C@@H](Cc1c[nH]c2ccccc12)C(=O)N[C@@H](Cc1ccccc1)C(=O)N[C@@H](CC(C)C)C(=O)O [RKWIWRWFL]

MIC [25]: 4.74 µM (≈ 5.65 µg/mL)
MIC [1]: 26.8 µM (≈ 32 µg/mL)
MIC [2]: 26.8 µM (≈ 32 µg/mL)
MIC [3]: 26.8 µM (≈ 32 µg/mL)
MIC [4]: 26.8 µM (≈ 32 µg/mL)
MIC (Staphylococcus aureus): 26.8 µM (≈ 32 µg/mL)
MIC [26]: 26.8 µM (≈ 32 µg/mL)
MIC [5]: ≥ 53.7 µM
SMILES: NC(=O)[C@H](Cc1ccccc1)NC(=O)[C@H](Cc1c[nH]c2ccccc12)NC(=O)[C@H](CCCN=C(N)N)NC(=O)[C@H](Cc1c[nH]c2ccccc12)NC(=O)[C@H](CCCN=C(N)N)NC(=O)[C@H](Cc1c[nH]c2ccccc12)NC(=O)[C@@H](N)CCCN=C(N)N [RWRWRWF]

MIC [6]: 3.15 µM (≈ 4.4 µg/mL)
MIC [7]: 25.1 µM (≈ 35 µg/mL)
MIC [8]: 0.43 µM (≈ 0.6 µg/mL)
MIC [9]: 6.17 µM (≈ 8.6 µg/mL)
MIC [10]: 6.17 µM (≈ 8.6 µg/mL)
MIC [11]: 25.1 µM (≈ 35 µg/mL)
MIC [12]: 25.1 µM (≈ 35 µg/mL)
MIC (Pseudomonas aeruginosa 9): 12.2 µM (≈ 17 µg/mL)
MIC [13]: 3.15 µM (≈ 4.4 µg/mL)
MIC [14]: 3.15 µM (≈ 4.4 µg/mL)
MIC [15]: 25.1 µM (≈ 35 µg/mL)
MIC [16]: 25.1 µM (≈ 35 µg/mL)
MIC [17]: 6.17 µM (≈ 8.6 µg/mL)
MIC [18]: 1.58 µM (≈ 2.2 µg/mL)
MIC [19]: ≥ 50.2 µM
MIC [20]: ≥ 50.2 µM
MIC [21]: 6.17 µM (≈ 8.6 µg/mL)
MIC [22]: 6.17 µM (≈ 8.6 µg/mL)
MIC [23]: 3.15 µM (≈ 4.4 µg/mL)
MIC [24]: 3.15 µM (≈ 4.4 µg/mL)
SMILES: CC[C@H](C)[C@H](NC(=O)[C@H](Cc1ccccc1)NC(=O)[C@H](CCCCN)NC(=O)[C@H](Cc1ccccc1)NC(=O)[C@H](CCCN=C(N)N)NC(=O)[C@@H](N)CCCN=C(N)N)C(=O)N[C@@H](CCCN=C(N)N)C(=O)N[C@@H](Cc1c[nH]c2ccccc12)C(=O)N[C@@H](Cc1c[nH]c2ccccc12)C(=O)O [RRFKFIRWW]

Further lines, the molecule ahead of its results:

SMILES: CC(C)C[C@H](NC(=O)[C@H](Cc1ccccc1)NC(=O)[C@H](CCCN=C(N)N)NC(=O)[C@H](CCCCN)NC(=O)[C@@H](N)CC(C)C)C(=O)N[C@@H](CCCCN)C(=O)N[C@@H](Cc1c[nH]c2ccccc12)C(=O)N[C@@H](Cc1ccccc1)C(=O)N[C@@H](CCCCN)C(=O)N[C@@H](CCCN=C(N)N)C(=O)N[C@@H](Cc1ccccc1)C(N)=O [LKRFLKWFKRF]
MIC (Streptococcus mutans): 8.83 µM (≈ 13.8 µg/mL)
MIC [1]: 10.2 µM (≈ 16 µg/mL)
MIC [2]: 10.2 µM (≈ 16 µg/mL)
MIC [3]: ≥ 40.8 µM
MIC [4]: 20.4 µM (≈ 32 µg/mL)
MIC [5]: 20.4 µM (≈ 32 µg/mL)

SMILES: CC(C)C[C@H](NC(=O)[C@H](CCCCN)NC(=O)CNC(=O)[C@H](CCCCN)NC(=O)[C@H](Cc1ccccc1)NC(=O)[C@H](CCCCN)NC(=O)[C@H](Cc1c[nH]c2ccccc12)NC(=O)[C@H](CCCN=C(N)N)NC(=O)[C@H](Cc1ccccc1)NC(=O)[C@H](CCCN=C(N)N)NC(=O)[C@H](CCCN=C(N)N)NC(=O)[C@H](Cc1ccc(O)cc1)NC(=O)[C@H](CCCCN)NC(=O)[C@H](CCCCN)NC(=O)[C@H](CS)NC(=O)CN)C(=O)N[C@@H](Cc1ccccc1)C(=O)N[C@@H](CC(C)C)C(=O)N[C@@H](Cc1ccccc1)C(=O)NCC(N)=O [GCKKYRRFRWKFKGKLFLFG]
MIC [27]: 6.24 µM (≈ 16 µg/mL)
MIC (Vibrio cholerae CUN 09): 6.24 µM (≈ 16 µg/mL)
MIC [28]: 3.12 µM (≈ 8 µg/mL)
MIC [23]: 3.12 µM (≈ 8 µg/mL)
MIC [29]: 1.56 µM (≈ 4 µg/mL)
MIC [30]: 3.12 µM (≈ 8 µg/mL)

SMILES: CC[C@H](C)[C@H](NC(=O)[C@@H](NC(=O)[C@@H]1CCCN1C(=O)[C@H](CC(C)C)NC(=O)[C@@H](N)Cc1ccccc1)[C@@H](C)CC)C(=O)N[C@H](C(=O)N[C@@H](CC(N)=O)C(=O)N[C@@H](CC(C)C)C(=O)N[C@@H](CC(C)C)C(=O)NCC(=O)N[C@@H](CCCCN)C(=O)N[C@@H](CC(C)C)C(=O)N[C@@H](CC(C)C)C(N)=O)[C@@H](C)O [FLPIITNLLGKLL]
MIC [31]: ≥ 100 µM
MIC [32]: ≥ 100 µM
MIC [23]: 6 µM (≈ 8.72 µg/mL)

SMILES: CC[C@H](C)[C@H](NC(=O)[C@H](C)NC(=O)[C@H](CO)NC(=O)[C@@H]1CCCN1C(=O)[C@@H](NC(=O)[C@H](CC(C)C)NC(=O)[C@H](CO)NC(=O)[C@H](Cc1ccccc1)NC(=O)[C@H](CC(C)C)NC(=O)[C@@H](N)Cc1ccccc1)[C@@H](C)CC)C(=O)N[C@@H](CO)C(=O)NCC(=O)N[C@@H](CC(C)C)C(=O)N[C@H](C(=O)N[C@@H](CO)C(=O)N[C@@H](C)C(=O)N[C@@H](Cc1ccccc1)C(=O)N[C@@H](CCCCN)C(N)=O)[C@@H](C)CC [FLFSLIPSAISGLISAFK]
MIC (Pseudomonas aeruginosa): 47.5 µM
MIC (Bacillus subtilis): 25.5 µM (≈ 48.8 µg/mL)
MIC [33]: ≥ 42.6 µM
MIC [34]: 25.5 µM (≈ 48.7 µg/mL)
MIC (Staphylococcus aureus): 8.37 µM (≈ 16 µg/mL)
MIC (Escherichia coli): 9.47 µM and 9.5 µM
MIC (Micrococcus luteus): ≥ 42.6 µM

SMILES: CC[C@H](C)[C@H](NC(=O)CN)C(=O)N[C@@H](CC(C)C)C(=O)N[C@@H](CC(=O)O)C(=O)N[C@H](C(=O)N[C@@H](Cc1ccccc1)C(=O)N[C@@H](CCCCN)C(=O)NCC(=O)N[C@H](C(=O)N[C@@H](C)C(=O)N[C@@H](CCCCN)C(=O)NCC(=O)N[C@H](C(=O)N[C@@H](C)C(=O)N[C@@H](CCCCN)C(=O)N[C@@H](CC(=O)O)C(=O)N[C@@H](CC(C)C)C(=O)N[C@@H](C)C(=O)N[C@H](C(=O)N[C@@H](Cc1cnc[nH]1)C(=O)N[C@@H](CCSC)C(=O)N[C@@H](CC(C)C)C(=O)N[C@@H](CCC(=O)O)C(=O)N[C@@H](CCCCN)C(=O)N[C@@H](CC(C)C)C(=O)N[C@@H](CCCCN)C(=O)N[C@H]1CSSC[C@@H](C(=O)O)NC(=O)CNC(=O)[C@H]([C@@H](C)O)NC(=O)[C@H](CCSC)NC(=O)[C@H](CCCCN)NC1=O)C(C)C)C(C)C)C(C)C)[C@@H](C)O [GILDTFKGVAKGVAKDLAVHMLEKLKCKMTGC]
MIC [31]: 25 µM (≈ 85.1 µg/mL)
MIC [32]: ≥ 40 µM
MIC [23]: 40 µM (≈ 136 µg/mL)

Source: DBAASP
